Target: human MMP-13 catalytic domain (hMMP-13CD) (Homo sapiens, UniProt P45452)
Test: Inhibition of MMP-13 catalytic domain (thiopeptolide substrate assay)
Type: biochemical
Description: The assays measure the amount by which a test compound reduces the hydrolysis of a thiopeptolide substrate catalyzed by a matrix metalloproteinase enzyme. Such assays are described in detail by Ye et al., in Biochemistry, 1992;31(45):11231-11235, which is incorporated herein by reference. One such assay is described below in Biological Method 1.
Thiopeptolide substrates show virtually no decomposition or hydrolysis at or below neutral pH in the absence of a matrix metalloproteinase enzyme. A typical thiopeptolide substrate commonly utilized for assays is Ac-Pro-Leu-Gly-thioester-Leu-Leu-Gly-OEt. […] The change in absorbance at 405 nm is monitored on a Thermo Max microplate reader (molecular Devices, Menlo Park, Calif.) at room temperature (22° C.). […]
Some representative compounds of Formula I have been evaluated for their ability to inhibit MMP-13. Inhibitor activity versus other MMPs with the compounds may be determined using, for example, MMP-1FL, which refers to full length interstitial collagenase; MMP-2FL, which refers to full length Gelatinase A; MMP-3CD, which refers to the catalytic domain of stromelysin; MMP-7FL, which refers to full length matrilysin; MMP-9FL, which refers to full length Gelatinase B; MMP-13CD, which refers to the catalytic domain of collagenase 3; and MMP-14CD, which refers to the catalytic domain of MMP-14. […]

- IC50: > 50 µM
SMILES: O=C(O)c1ccc(Cn2ccc3ccc(C#CCn4ccnn4)cc3c2=O)cc1 [4-[1-oxo-7-(3-[1,2,3]triazol-1-ylprop-1-ynyl)-1H-isoquinolin-2-ylmethyl]benzoic acid]
